For the test, the system named is patients at risk for a vascular occlusion. The test can be described thus: ascorbic acid infusion as adjuvant to thrombolytic treatment (streptokinase or heparin) in patients, compared with patients receiving no ascorbic acid. The test is classed as in vivo, humans. The settings on record: 20 patients; infusion of 70 ml of a 15% ascorbic acid solution diluted with physiological saline, pH 6.0 to 7.0, over four hours, with streptokinase (1.0×106 units) or heparin 2.5 mg/kg; versus equal number of patients with no ascorbic acid infusion but otherwise the same therapy. As for the experimental part:
Treatment of a patient threatened by a vascular occlusion is administered, for example, by first giving the patient streptokinase (1.0×106 units) or heparin in a dose of 2.5 mg/kg […] in the form of an infusion over a period of 30 minutes. At the same time, the patient receives over a period of four hours an infusion of 70 ml of a 15% ascorbic acid solution diluted with physiological saline solution and adjusted to a pH of 6.0 to 7.0. The patient's condition is monitored continuously by an electrocardiogram. A group of 20 patients at risk for a vascular occlusion were treated by the procedure described above and compared with an equal number of patients receiving no ascorbic acid infusion during the operation but otherwise the same therapy.

The text below walks through data of patent US20020051795A1, “ASCORBIC ACID AS AN ADJUVANT IN THE REMOVAL OF VASCULAR OCCLUSIONS” (priority 1997, published 2002).

On to `O=C1O[C@H]([C@@H](O)CO)C(O)=C1O` [ascorbic acid], for which the “complications during the operation and during the subsequent two-week observation phase” value is “significantly fewer complications”.
